# Earlier results as cited in patent EP4241780A1, “ENRICHED POLYPHENOLIC FRACTIONS OF ARONIA EXTRACTS AND USES THEREOF” (Diana, priority 2022, dated 2023).
# Tested on: HepG2 cells
# Conditions: 100% pure compounds, reference [31], Figure 4
row,SMILES,EC50 intracellular antioxidant activity of pure compounds [mg/L]
1,O=c1c(O)c(-c2ccc(O)c(O)c2)oc2cc(O)cc(O)c12 [quercetin],7
2,Oc1ccc(C=Cc2cc(O)cc(O)c2)cc1 [resveratrol],14.8
